Data taken from patent publication US4591552A, “Detection of hepatitis B surface antigen (or antibody to same) with labeled synthetic peptide” (priority 1982, dated 1986).

System: antiserum to the synthetic peptide
Assay: Competition immunoassay: binding to Staphylococci (protein A) of β-galactosidase-conjugated peptide 135-155 complexed with homologous antibodies
Parameters: species or system rabbit
Settings: control antigens
Method: It is known that immunoglobulins of the IgG class attach to Staphylococci carrying protein A. If the immunoglobulins are bound to labeled antigens thus forming immune complexes, such (labeled) complexes attach to the Staphylococci. […] The above forms the basis of the following test:
250 μl of mixtures containing various unlabeled antigens, 1:125 diluted antiserum to the synthetic peptide (see Example 3 above), 1:8,000 diluted peptide-β-galactosidase conjugate (see Example 2 above) and 50 mg/ml of bovine serum albumin (BSA) were each incubated for 30 minutes at 37° C. and mixed with an equal volume of a 2.5% suspension of Staphylococci (Pansorbin, Calbiochem, LaJolla, Calif.). The bacteria were pelleted, washed with tris-buffered saline, and the adsorbed β-galactosidase corresponding to the enzyme-peptide conjugate was determined fluorometrically as described by Neurrath and Strick, J. Virol. Methods, supra. The fluorescence in the absence of unlabeled competing antigens was 900.

## synthetic insulin A chain: control antigen
  inhibitory effect on binding of β-galactosidase activity to the bacteria: did not have any inhibitory effect
